Measurements as given in publication PMC3493512, “Structures of SHV-1 β-Lactamase with Penem and Penam Sulfone Inhibitors That Form Cyclic Intermediates Stabilized by Carbonyl Conjugation” (PLoS ONE, 2012).

Molecular target: T1, SHV-1 β-lactamase (Klebsiella pneumoniae, UniProt P0AD64)
T1 construct: gene bla
Test: X-ray crystal structure at […] Å (soak); Ki by direct competition kinetics
Type: biochemical

T1 sequence (P0AD64 22-286): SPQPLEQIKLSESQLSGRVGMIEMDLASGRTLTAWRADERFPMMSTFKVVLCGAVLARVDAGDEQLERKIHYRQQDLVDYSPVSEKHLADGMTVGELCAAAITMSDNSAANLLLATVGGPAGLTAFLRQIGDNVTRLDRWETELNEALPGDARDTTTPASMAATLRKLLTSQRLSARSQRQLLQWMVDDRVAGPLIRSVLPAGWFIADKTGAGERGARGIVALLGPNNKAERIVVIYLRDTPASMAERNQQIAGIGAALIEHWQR

SMILES: C[C@]1(COC(=O)Cc2ccccc2)[C@H](C(=O)O)N2C(=O)/C(=C/c3ccccn3)[C@H]2S1(=O)=O [SA1-204]
- Ki: 42 ± 4 nM
